# Data published in patent US20250276033A1, “COMPOSITIONS FOR IMPROVING KIDNEY FUNCTION IN PATIENTS WITH HEPATORENAL SYNDROME” (Mallinckrodt Pharmaceuticals Ireland Limited, priority 2022, published 2025).
# Where two headings read alike, the source gives them in different places. Where a SMILES comes first, the peptide text is derived from it. Bridges are numbered along the chain shown (N, C = ends).
# Experiments:
# patients with HRS-1 [1] = experiment: ACLF grade and respiratory failure with terlipressin, double-blind placebo-controlled trial (Example 3); format: in vivo, human
# Procedure: In FIG. 6B, the incidence of respiratory failure was based on CLIF-SOFA score definition of respiratory failure.
# The study was a double-blind placebo-controlled trial. […] HRS-1 was defined as rapidly rising serum creatinine (SCr) to ≥2.25 mg/dl in <14 days without response to volume challenge or evidence of structural renal disease.
# All patients were assessed for organ failure (OF) per EASL-CLIF criteria and then classified into grades of acute-on-chronic liver failure (ACLF). All patients had at minimum grade 1 ACLF due to the presence of HRS-1; grades 2 and 3 ACLF represent 2 or 3 OFs respectively. Patients were separated into into grade≤2 and grade 3 ACLF subgroups.
# QTc interval = experiment: Cardiac electrophysiology in 41 patients with HRS-1; format: in vivo, human; conditions: 1 mg terlipressin acetate every 6 hours up to 14 days; Fridericia correction
# Text: Increases of the mean QTc interval of <10 ms were reported.
# CYP enzymes = experiment: CYP inhibition and induction in human liver microsomes; format: in vitro ADME
# Text: (§1) No significant drug-drug interactions are anticipated with terlipressin (TERLIVAZ).
# [2] = system: human ABC and SLC transporters; experiment: Transporter inhibition and substrate studies; format: in vitro ADME
# Text: as §1
# [3] = Metabolism in blood or plasma
# Text: Once formed, lysine-vasopressin is metabolized by body tissue via various peptidase-mediated routes.
# pregnant guinea pigs = conditions: doses lower than the maximum recommended human dose of 4 mg/day; cited from earlier work
# rabbits = conditions: increased resorptions, implantation loss, fetal anomalies and deformities; cited from earlier work
# patients = conditions: voluntary reports; cited from earlier work
# pregnant women = conditions: single intravenous or intranasal dose, first trimester; cited from earlier work
# [4] = background statement; cited from earlier work
# mouse = experiment: In vivo mouse micronucleus assay
# bacterial = experiment: In vitro bacterial reverse mutation assay
# [5] = Pharmacokinetics and excretion in healthy subjects
# mammalian cell (CHO) = experiment: In vitro mammalian cell (CHO) chromosome aberration assay
# [6] = Pharmacokinetic modeling with sparse PK samples from 69 patients with HRS-1; conditions: for AUC(0-t) / Cmax: iv
# patients with HRS-1 [7] = experiment: CONFIRM randomized, placebo-controlled, double-blind study of terlipressin plus albumin; conditions: for between-group difference in the incidence of respiratory failure SAEs / between-group difference in the incidence of respiratory failure fatal AEs: terlipressin minus placebo
# Procedure: In particular, HRS-1 was defined based on modified prior criteria outlined by the International Club of Ascites (ICA), as rapidly deteriorating renal function to SCr≥2.25 mg/dl, with actual or projected doubling of SCr within 2 weeks, without improvement in renal function (<20% decrease in SCr 48 hours after both diuretic withdrawal and albumin-fluid challenge) in adult patients with cirrhosis and ascites. […] Treatment was continued to Day 14 unless the following occurred: verified HRS reversal (VHRSR), renal replacement therapy (RRT), liver transplantation (LT) or SCr at or above baseline (BL) at Day 4. VHRSR, the primary endpoint, was defined as 2 consecutive SCr values≤1.5 mg/dl, at least 2 hours apart, with subjects alive without RRT for at least 10 days after the second SCr≤1.5 mg/dL; HRS reversal (HRSR) was a decrease in SCr to ≤1.5 mg/dL. Secondary end points included HRS reversal (any SCr value 1.5 mg/dL or less during treatment), HRS reversal without RRT by day 30, HRS reversal in patients with systemic inflammatory response syndrome, and verified HRS reversal without recurrence by day 30.
# The patients were at least 18 years of age, with cirrhosis, ascites, and rapidly progressive renal failure, with a SCr doubling to at least 2.25 mg/dL within 14 days. Major exclusion criteria included SCr of greater than 7.0 mg/dL, one or more large-volume paracenteses of 4 L or more within 2 days of randomization, evidence of parenchymal renal diseases or obstructive uropathy, or presence of sepsis and/or uncontrolled bacterial infection. Patients with severe cardiovascular disease or recent (within 4 weeks) renal replacement therapy (RRT) were excluded.
# 300 subjects were enrolled in the study. […] Patients were stratified by qualifying SCr (less than 3.4 mg/dL or 3.4 mg/dL or greater) and pre-enrollment large-volume paracentesis (at least one single event of 4 L or greater, or less than 4 L within 3 to 14 days prior to randomization).
# A baseline SCr value was assessed before the patients received the assigned treatment. […] In keeping with current guidelines, it was strongly recommended that albumin (1 g/kg to a maximum of 100 g, on day 1 and 20 to 40 g/day thereafter) be administered to all subjects. If SCr decreased <30% from the baseline value on Day 4, after a minimum of 10 doses of study drug, dose increase to 2 mg every 6 hours (±30 minutes) (8 mg/day) was mandated, except in subjects with coronary artery disease or in the setting of circulatory overload, pulmonary edema, or bronchospasm. Dose resumption was permitted after interruption for adverse events except for cardiac or mesenteric ischemia, for which treatment was permanently discontinued.
# The primary efficacy end point was the incidence of verified HRS reversal, defined as the percentage of patients with two consecutive SCr values no greater than 1.5 mg/dl at least 2 hours apart, while remaining alive without RRT for at least 10 days after achieving verified HRS reversal, while excluding SCr values after RRT, transjugular intrahepatic portosystemic shunt, liver transplant, or open-label vasopressor from primary end point analysis.
# Secondary efficacy end points included incidence of HRS reversal, defined as the percentage of patients with an on-treatment SCr value of 1.5 mg/dl or less; durability of HRS reversal, defined as the percentage of patients with HRS reversal without RRT to day 30; incidence of HRS reversal among patients with systemic inflammatory response syndrome; and incidence of verified HRS reversal without HRS recurrence by day 30.
# [8] = human, in vivo
# clinical = conditions: human, in vivo; for AUC(0-t) / Cmax: iv
smiles,measurement,setting,value
"NCCCC[C@H](NC(=O)[C@@H]1CCCN1C(=O)[C@@H]1CSSC[C@H](NC(=O)CNC(=O)CNC(=O)CN)C(=O)N[C@@H](Cc2ccc(O)cc2)C(=O)N[C@@H](Cc2ccccc2)C(=O)N[C@@H](CCC(N)=O)C(=O)N[C@@H](CC(N)=O)C(=O)N1)C(=O)NCC(N)=O [Terlipressin, N—[N—(N-glycylglycyl)glycyl]-8-L-lysinevasopressin] (H-GGGCYFQNCPKG-NH2; disulfide 4-9 (inferred))",percent of patients with respiratory failure,"patients with HRS-1 [1]; ACLF 3, FIG. 6C, investigator reported",much higher than placebo
same,"incidence of respiratory failure, baseline to end of treatment","patients with HRS-1 [1]; FIGS. 6A-6B, CLIF-SOFA definition",increased incidence of respiratory failure
same,Increases of the mean QTc interval,QTc interval,< 10 ms
same,QTc changes from baseline,QTc interval,No clinically meaningful changes from baseline
same,"direct-, time-, or metabolism dependent inhibitor and inducer of CYP enzymes",CYP enzymes,little or no evidence
same,inhibitor and substrate of human ABC and SLC transporters,[2],little or no evidence
same,metabolism in blood or plasma,[3],not metabolized in blood or plasma
same,reproductive toxicity finding,pregnant guinea pigs,marked decrease in blood flow to the uterus and placenta
same,reproductive toxicity finding,rabbits,embryotoxic and teratogenic
same,Adverse reactions reported from postmarketing experience,patients,"headache hyponatremia, skin necrosis and gangrene"
same,effect in pregnancy,pregnant women,induced uterine contractions and endometrial ischemia
same,duration of action,[4],2 to 10 h
same,half-life,[4],6 h
same,mutagenicity / clastogenicity,mouse,not mutagenic or clastogenic
same,mutagenicity / clastogenicity,bacterial,not mutagenic or clastogenic
same,dose-dependent changes in the elimination rate constant,[5],no dose-dependent changes
same,pharmacokinetic linearity,[5],linear pharmacokinetics
same,mutagenicity / clastogenicity,mammalian cell (CHO),not mutagenic or clastogenic
same,median Cave at steady state,[6]; 1 mg IV injection of terlipressin acetate,14.2 ng/mL
same,mean Cave,[6]; 1 mg dose of terlipressin acetate IV,about 14.2 ng/ml
same,Vd,"[6]; human, in vivo",6.3 L
same,clearance,"[6]; human, in vivo, 1 mg, clearance (derived typical population PK parameter), 1 mg terlipressin acetate",457 mL/min
same,clearance,"[6]; human, in vivo, clearance, typical population PK parameter (range)",413 to 518 mL/min
same,AUC(0-t),"[6]; human, in vivo, 1 mg, AUC24h (range), 1 mg dose of terlipressin acetate IV",61.2 to 246 ng·h/mL
same,Cmax,"[6]; human, in vivo, 1 mg, Cmax (range), 1 mg dose of terlipressin acetate IV",37.1 to 143 ng/mL
same,AUC(0-t),"[6]; human, in vivo, 1 mg, mean AUC24h, 1 mg dose of terlipressin acetate IV",~123 ng·h/mL
same,Cmax,"[6]; human, in vivo, 1 mg, mean Cmax, 1 mg dose of terlipressin acetate IV",~70.5 ng/mL
same,AUC(0-t),"[6]; human, in vivo, 1 mg, median AUC24h at steady state, 1 mg IV injection of terlipressin acetate",123 ng·h/mL
same,Cmax,"[6]; human, in vivo, 1 mg, median Cmax at steady state, 1 mg IV injection of terlipressin acetate",70.5 ng/mL
same,half-life,"[6]; human, in vivo, terminal half-life",~0.9 h
same,Treatment discontinuation due to adverse events,patients with HRS-1 [7]; 24/200 patients,12.0%
same,most common adverse events that led to discontinuation,patients with HRS-1 [7]; in vivo,"respiratory failure, abdominal pain, and intestinal ischemia/obstruction"
same,subjects listed at baseline who did not receive a transplant and died by Day 90 (pre-transplant mortality),"patients with HRS-1 [7]; mitigated population, 4 subjects",11.4%
same,AE leading to death up to 30 days post-treatment: Respiratory failure,"patients with HRS-1 [7]; mitigated population, N = 132",5.3 % of Subjects
same,Any AE leading to death up to 30 days post-treatment,"patients with HRS-1 [7]; mitigated population, N = 132",34.1 % of Subjects
same,Death by Day 30,"patients with HRS-1 [7]; mitigated population, N = 132",31.8 % of Subjects
same,Death by Day 60,"patients with HRS-1 [7]; mitigated population, N = 132",40.2 % of Subjects
same,Death by Day 90,"patients with HRS-1 [7]; mitigated population, N = 132",44.7 % of Subjects
same,Serior Adverse Events,"patients with HRS-1 [7]; mitigated population, N = 132",61.4 % of Subjects
same,Serious adverse events: Respiratory failure,"patients with HRS-1 [7]; mitigated population, N = 132",9.8 % of Subjects
same,Any AE leading to death up to 30 days post-treatment,"patients with HRS-1 [7]; mitigated population, N = 132, listed as terlipressin",31.8 % of Subjects
same,subjects listed at baseline who did not receive a transplant and died by Day 90 (pre-transplant mortality),"patients with HRS-1 [7]; overall population, 12 subjects",21.4%
same,AE leading to death up to 30 days post-treatment: Respiratory failure,"patients with HRS-1 [7]; overall population, N = 200",8.5 % of Subjects
same,Any AE leading to death up to 30 days post-treatment,"patients with HRS-1 [7]; overall population, N = 200",41.5 % of Subjects
same,Death by Day 30,"patients with HRS-1 [7]; overall population, N = 200",39.0 % of Subjects
same,Death by Day 60,"patients with HRS-1 [7]; overall population, N = 200",47.0 % of Subjects
same,Death by Day 90,"patients with HRS-1 [7]; overall population, N = 200",51.0 % of Subjects
same,Serior Adverse Events,"patients with HRS-1 [7]; overall population, N = 200",65.0 % of Subjects
same,Serious adverse events: Respiratory failure,"patients with HRS-1 [7]; overall population, N = 200",13.5 % of Subjects
same,Any AE leading to death up to 30 days post-treatment,"patients with HRS-1 [7]; overall population, N = 200, listed as terlipressin",39.0 % of Subjects
same,Adverse reaction: Abdominal pain,"patients with HRS-1 [7]; patients (percent), N = 200",39 (19.5)
same,Adverse reaction: Bradycardia,"patients with HRS-1 [7]; patients (percent), N = 200",10 (5.0)
same,Adverse reaction: Diarrhea,"patients with HRS-1 [7]; patients (percent), N = 200",26 (13.0)
same,Adverse reaction: Dyspnea,"patients with HRS-1 [7]; patients (percent), N = 200",25 (12.5)
same,Adverse reaction: Fluid overload,"patients with HRS-1 [7]; patients (percent), N = 200",17 (8.5)
same,Adverse reaction: Nausea,"patients with HRS-1 [7]; patients (percent), N = 200",32 (16.0)
same,Adverse reaction: Pleural effusion,"patients with HRS-1 [7]; patients (percent), N = 200",11 (5.5)
same,Adverse reaction: Respiratory failure,"patients with HRS-1 [7]; patients (percent), N = 200",31 (15.5)
same,Adverse reaction: Sepsis,"patients with HRS-1 [7]; patients (percent), N = 200",11 (5.5)
same,Adverse reaction: Ischemia-related events,"patients with HRS-1 [7]; patients (percent), N = 200, skin discoloration, cyanosis, ischemia and intestinal ischemia",9 (4.5)
same,serious or fatal respiratory failure,patients with HRS-1 [7]; primary clinical trial,14%
same,between-group difference in the incidence of respiratory failure SAEs,patients with HRS-1 [7]; mitigated population,2.8%
same,between-group difference in the incidence of respiratory failure fatal AEs,patients with HRS-1 [7]; mitigated population,3.9%
same,between-group difference in the incidence of respiratory failure fatal AEs,patients with HRS-1 [7]; overall population,7.5%
same,between-group difference in the incidence of respiratory failure SAEs,patients with HRS-1 [7]; overall study population,8.4%
NCCCC[C@H](NC(=O)[C@@H]1CCCN1C(=O)[C@@H]1CSSC[C@H](N)C(=O)N[C@@H](Cc2ccc(O)cc2)C(=O)N[C@@H](Cc2ccccc2)C(=O)N[C@@H](CCC(N)=O)C(=O)N[C@@H](CC(N)=O)C(=O)N1)C(=O)NCC(N)=O [lysine-vasopressin],pharmacokinetic linearity,[8],linear pharmacokinetics
same,Vd,clinical,1370 L
same,clearance,"clinical; 1 mg, clearance (derived typical population PK parameter)",5300 mL/min
same,clearance,"clinical; clearance, typical population PK parameter (range)",4720 to 6050 mL/min
same,AUC(0-t),"clinical; 1 mg, AUC24h (range)",3.78 to 33.5 ng·h/mL
same,Cmax,"clinical; 1 mg, Cmax (range)",0.4 to 3.36 ng/mL
same,AUC(0-t),"clinical; 1 mg, mean AUC24h",11.2 ng·h/mL
same,Cmax,"clinical; 1 mg, mean Cmax",~1.2 ng/mL
same,AUC(0-t),"clinical; 1 mg, median AUC24h at steady state",11.2 ng·h/mL
same,Cmax,"clinical; 1 mg, median Cmax at steady state",1.2 ng/mL
same,half-life,clinical; terminal half-life,~3 h
NC(=O)CC[C@@H]1NC(=O)[C@H](Cc2ccccc2)NC(=O)[C@H](Cc2ccc(O)cc2)NC(=O)[C@@H](N)CSSC[C@@H](C(=O)N2CCC[C@H]2C(=O)N[C@@H](CCCN=C(N)N)C(=O)NCC(N)=O)NC(=O)[C@H](CC(N)=O)NC1=O [vasopressin],duration of action,[4],0.5 to 1 h
same,half-life,[4],0.1 h
